The source of these data is patent US10905679B2, “TRPM8 receptor agonist compounds and uses thereof” (UNIVERSIDAD MIGUEL HERNANDEZ DE ELCHE, priority 2016, dated 2021).

In one assay the target is T1, TRPM8 (Homo sapiens, UniProt Q7Z2W7).
T1 construct: expressed in transfected cells
Briefly: Ca2+ fluorimetry assay in CHO cell line stably expressing TRPM8. The note with it: CHO cells stably expressing TRPM8. It is filed as cell-based. The protocol:
The cells were cultured in monolayer in EMEM medium (Earle's minimum essential medium with Earle's salts, Invitrogen) supplemented with 10% foetal bovine serum (FBS), 2 mM L-glutamine, 1% penicillin-streptomycin solution and […] of the Geneticin antibiotic (Sigma) and kept at 37° C. in a humidified atmosphere with 5% of CO2. Ca^2+ fluorimetry assays were carried out in order to determine the efficacy of the compounds on the TRPM8 channels. The cells were seeded in 96-well plates with a density of 25,000 cells per well. Three days after seeding, the medium was removed and 100 μl of the Fluo-4NW fluorescent probe from Invitrogen was added with a concentration of 5 μM in the presence of 0.02% pluronic acid; after 60 minutes of incubation at 37° C. in a humidified atmosphere with 5% of CO2, the fluorescence was measured in a microplate reader (POLARstar Omega) with a configuration of 485 nm for the excitation and 520 nm for the emission, during 20 cycles. […] In the wells that were used as negative controls, 1 μl of AMTB [N-(3-aminopropyl)-2-[(3-methylphenyl)methoxy]-N-(2-thienylmethyl)benzamide] was added to obtain a final concentration of 10 μM, to block the TRPM8 channels.
The amplitudes of the Ca^2+ increases, caused by the stimulation of the cells with the compounds, were measured by subtracting the basal fluorescence signal (mean intensity obtained before adding the compound) from the fluorescence peak obtained after applying the compounds. The obtained results were adjusted to a sigmoid function using the software suite of the GraphPad Prism computer program.

Assay [1] has as its system TRPM8, TRPV1 and TRPA1 channels. Put plainly: Specificity by Ca2+ fluorescence microscopy in mouse dorsal root ganglion (DRG) neurons. The class given is cell-based. The note with it: Fluo-4 AM fluorescence, FIG. 1. The protocol:
Neurons obtained from a mouse dorsal root ganglion (DRG) were used to determine the specificity of the TZM-7 compound. These cells constitutively express the TRPM8, TRPV1 and TRPA1 channels, among others (the TRPV1 and TRPA1 channels are channels of the same family as the TRPM8 channel and are permeable to calcium). The intracellular Ca^2+ concentration was measured using fluorescence microscopy in order to view the activity of these channels. The cells were seeded with a density of 250,000 cells/well on round glass cover slips (18 mm diameter, […]) in 12-well plates (Costar) and cultured in Pure-EMEM during 3 days immediately before the Ca^2+ experiments. […] The cells that were not sensitive to the application of high potassium concentration were not analysed. […] The fluorescence measurements were taken using an Axiovert 200 inverted microscope from Zeiss (Oberkochen, Germany) coupled with an ORCA-ER CCD camera (Hamamatsu Photonics, Bridgewater, N.J.) and observed through a 10× magnification air lens. The Fluo-4 AM fluorescent probe was excited at 500 nm using a Lambda-10-2 filter wheel (Sutter Instruments, Novato, Calif.) and the emission fluorescence was filtered with a 535 nm longpass filter. […]

For the next assay, the system named is guinea pig. Put plainly: In vivo tear secretion measured using phenol red threads after ocular instillation. The settings on record: 10 μM, phenol red thread 30 seconds, p<0.05, comparable to menthol at 200 μM, FIG. 2. An excerpt:
The in vivo activity of the selected TRPM8 activating compounds (TZM-7) has been assessed in an animal model following the protocol described in Acosta M C et al., Invest Ophthalmol Vis Sci 2014 (Corneal sensory nerve activity in an experimental model of UV keratitis. Acosta M et al., Invest Ophthalmol Vis Sci May 1; 55(6):3403-12). […] Tear secretion can be measured using phenol red threads (Zone-Quick, Menicon, Nagoya, Japan) that are applied to the nasal edge of the lower eyelid for 30 seconds (after that time, the distance of the red-dyed thread is measured in mm).

Each structure is given as a SMILES string.

T1 sequence (Q7Z2W7 whole entry): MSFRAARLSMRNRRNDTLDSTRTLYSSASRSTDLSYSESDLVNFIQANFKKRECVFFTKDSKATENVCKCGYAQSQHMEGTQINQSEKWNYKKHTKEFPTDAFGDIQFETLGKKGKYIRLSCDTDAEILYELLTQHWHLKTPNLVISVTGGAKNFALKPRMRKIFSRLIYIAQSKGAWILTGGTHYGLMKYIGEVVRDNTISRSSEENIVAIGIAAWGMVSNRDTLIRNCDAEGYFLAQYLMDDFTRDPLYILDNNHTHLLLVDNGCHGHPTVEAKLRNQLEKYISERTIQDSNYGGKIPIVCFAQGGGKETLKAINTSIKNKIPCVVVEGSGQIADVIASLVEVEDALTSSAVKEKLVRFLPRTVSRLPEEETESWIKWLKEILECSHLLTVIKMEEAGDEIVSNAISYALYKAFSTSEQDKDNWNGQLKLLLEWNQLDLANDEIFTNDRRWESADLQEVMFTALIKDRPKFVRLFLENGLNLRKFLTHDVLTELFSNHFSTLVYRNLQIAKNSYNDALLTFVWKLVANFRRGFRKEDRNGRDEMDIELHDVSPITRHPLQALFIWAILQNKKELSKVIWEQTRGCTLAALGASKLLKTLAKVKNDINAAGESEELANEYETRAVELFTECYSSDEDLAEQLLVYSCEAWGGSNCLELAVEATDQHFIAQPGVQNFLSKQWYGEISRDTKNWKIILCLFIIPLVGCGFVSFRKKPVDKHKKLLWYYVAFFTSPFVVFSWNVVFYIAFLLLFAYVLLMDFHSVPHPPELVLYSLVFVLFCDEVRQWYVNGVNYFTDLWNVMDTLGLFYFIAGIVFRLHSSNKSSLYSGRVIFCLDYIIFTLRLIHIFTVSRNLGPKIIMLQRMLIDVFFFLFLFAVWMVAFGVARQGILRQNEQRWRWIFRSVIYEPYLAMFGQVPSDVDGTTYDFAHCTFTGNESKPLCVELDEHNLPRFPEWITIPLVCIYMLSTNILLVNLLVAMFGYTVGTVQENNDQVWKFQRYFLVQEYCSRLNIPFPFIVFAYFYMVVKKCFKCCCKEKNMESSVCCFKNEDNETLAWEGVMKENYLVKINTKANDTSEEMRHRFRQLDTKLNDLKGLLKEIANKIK

Compound `COc1cc(OC)cc(-c2cn([C@@H]3C[C@H](C)CC[C@H]3C(C)C)nn2)c1` [TZM-7, 4-(3,5-dimethoxyphenyl)-1-((1R,2S,5R)-2-isopropyl-5-methylcyclohexyl)-1H-1,2,3-triazole] returned an activation at 10 µM on TRPM8 (10 μM, Fluo-4NW fluorescence) of 78.5 ± 30.6%. A half-maximal response at TRPM8 (concentrations 0.1, 1, 10 and 100 μM, sigmoid fit) (EC50) required 2910 ± 210 nM. Also, in assay [1], the “specificity to activate TRPM8 channels compared with other channels (TRPV1 and TRPA1)” value was “high specificity”. In addition, the “rate of lachrymation (tear secretion)” value in the assay with guinea pig is “significantly increases the rate of lachrymation”.
